IC50 data for 27 molecules are collected here from patent publication US20260297070A1, “CYCLIC [COMPOUND LEFT OUT] WRN INHIBITORS” (Nimbus Wadjet, Inc., priority 2023, published 2026).

The experiment addresses T1, human Werner helicase (WRN-BV08, Uniprot Q14191, amino acids 517-1235 with L1074F point mutation) (Homo sapiens, UniProt Q14191, L1074F).
T1 construct: Uniprot Q14191, amino acids 517-1235 with L1074F point mutation; TEV-cleavable 8×His (C, cleaved yes); made in house; host or cells: Sf9 insect cells (baculovirus)
Put plainly: WRN (BV08) ADP-Glo Assay. Type of experiment: biochemical. As to conditions: 0.15 nM WRN, 5 μM ATP, 0.1 nM DNA duplex, 15 min preincubation, 60 min at 25° C., pH 7.5, 1% DMSO; read-out: ADP-Glo_hWRN_IC50. The gist of the method:
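Untagged WRN (Sf9-expressed, TEV-cleaved) at 0.15 nM was preincubated 15 min at 25 °C with compound, then reacted 60 min at 25 °C with 5 μM ATP and 0.1 nM DNA duplex in Bicine pH 7.5, 1 mM MgCl2. ADP-Glo luminescence gave % inhibition; IC50 by four-parameter fit.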
In general terms: ADP-Glo first removes unused ATP, then detects ADP through luciferase.

T1 sequence (Q14191 with tags, fused parts or gaps L1074F limits assumed): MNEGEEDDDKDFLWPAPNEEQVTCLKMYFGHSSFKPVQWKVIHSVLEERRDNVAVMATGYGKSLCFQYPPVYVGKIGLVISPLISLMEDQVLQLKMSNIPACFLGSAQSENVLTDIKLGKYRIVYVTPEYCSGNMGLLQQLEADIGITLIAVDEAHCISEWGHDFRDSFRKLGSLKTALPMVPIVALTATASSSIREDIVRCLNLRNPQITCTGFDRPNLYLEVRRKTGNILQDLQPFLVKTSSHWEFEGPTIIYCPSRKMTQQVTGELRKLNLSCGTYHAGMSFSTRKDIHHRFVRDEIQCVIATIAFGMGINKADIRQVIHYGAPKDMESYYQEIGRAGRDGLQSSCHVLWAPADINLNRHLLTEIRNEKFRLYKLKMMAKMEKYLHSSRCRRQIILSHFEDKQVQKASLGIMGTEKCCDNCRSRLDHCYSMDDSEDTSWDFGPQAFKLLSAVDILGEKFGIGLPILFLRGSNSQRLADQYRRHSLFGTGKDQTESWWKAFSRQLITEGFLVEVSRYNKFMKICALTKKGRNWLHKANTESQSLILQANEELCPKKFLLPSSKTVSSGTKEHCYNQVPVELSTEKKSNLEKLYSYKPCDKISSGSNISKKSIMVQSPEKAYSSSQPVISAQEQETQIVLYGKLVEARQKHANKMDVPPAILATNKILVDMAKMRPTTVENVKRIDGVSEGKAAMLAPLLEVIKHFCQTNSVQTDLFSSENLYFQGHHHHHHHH

Regarding `COc1cc(CN(C(=O)Cc2ccc(-n3c(C)ccc3C)cc2F)C2C=CS(=O)(=O)C2)ccn1` (stereo not drawn) [I-171, 2-[4-(2,5-dimethyl-1H-pyrrol-1-yl)-2-fluorophenyl]-N-(1,1-dioxo-2,3-dihydro-1lambda6-thiophen-3-yl)-N-[(2-methoxypyridin-4-yl)methyl]acetamide], the IC50 lay in the range of 0.5 to 5 µM.
Under `O=C(Cc1ccc(-c2nnco2)cc1)N(Cc1ccncc1)C1C=CS(=O)(=O)C1` (stereo not drawn) [I-558, N-(1,1-dioxo-2,3-dihydro-1lambda6-thiophen-3-yl)-2-[4-(1,3,4-oxadiazol-2-yl)phenyl]-N-[(pyridin-4-yl)methyl]acetamide] stands above 50 µM; under `O=C(Cc1ccc(-n2cccc2)cc1)N(C1C=CS(=O)(=O)C1)C1CCC1` (stereo not drawn) [I-533, N-cyclobutyl-N-(1,1-dioxo-2,3-dihydro-1lambda6-thiophen-3-yl)-2-[4-(1H-pyrrol-1-yl)phenyl]acetamide], above 50 µM.
Under `O=C(C1C2CN(CC(F)(F)F)CC21)N(Cc1ccncc1)C1C=CS(=O)(=O)C1` (stereo not drawn) [I-618, N-(1,1-dioxo-2,3-dihydro-1lambda6-thiophen-3-yl)-N-[(pyridin-4-yl)methyl]-3-(2,2,2-trifluoroethyl)-3-azabicyclo[3.1.0]hexane-6-carboxamide] stands above 50 µM; under `CC(C)Cc1ccc(CC(=O)N(Cc2ccncc2)C2C=CS(=O)(=O)C2)cc1` (stereo not drawn) [I-283, N-(1,1-dioxo-2,3-dihydro-1lambda6-thiophen-3-yl)-2-[4-(2-methylpropyl)phenyl]-N-[(pyridin-4-yl)methyl]acetamide], 10 to 50 µM; under `O=C(CCc1cnc2n1CCCCC2)N(Cc1ccncc1)C1C=CS(=O)(=O)C1` (stereo not drawn) [I-560, N-(1,1-dioxo-2,3-dihydro-1lambda6-thiophen-3-yl)-3-{5H,6H,7H,8H,9H-imidazo[1,2-a]azepin-3-yl}-N-[(pyridin-4-yl)methyl]propanamide], above 50 µM.
The result for `COc1ccc(-c2ccc(CC(=O)N(Cc3ccncc3)C3C=CS(=O)(=O)C3)cc2)cc1` (stereo not drawn) [I-555, N-(1,1-dioxo-2,3-dihydro-1lambda6-thiophen-3-yl)-2-{4′-methoxy-[1,1′-biphenyl]-4-yl}-N-[(pyridin-4-yl)methyl]acetamide] reads above 50 µM.
As for `Cc1cccn1-c1ccc(CC(=O)N(Cc2cccnn2)C2C=CS(=O)(=O)C2)c(F)c1` (stereo not drawn) [I-224, N-(1,1-dioxo-2,3-dihydro-1lambda6-thiophen-3-yl)-2-[2-fluoro-4-(2-methyl-1H-pyrrol-1-yl)phenyl]-N-[(pyridazin-3-yl)methyl]acetamide], the IC50 was in the range of 5 to 10 µM.
Under `O=C(Cc1ccc2c(c1)OCO2)N(Cc1ccncc1)C1C=CS(=O)(=O)C1` (stereo not drawn) [I-494, 2-(2H-1,3-benzodioxol-5-yl)-N-(1,1-dioxo-2,3-dihydro-1lambda6-thiophen-3-yl)-N-[(pyridin-4-yl)methyl]acetamide] stands above 50 µM.
For `CC(C(=O)N(Cc1ccncc1)C1C=CS(=O)(=O)C1)c1ccc(-c2ccc(F)cc2)cc1` (stereo not drawn) [I-266, N-(1,1-dioxo-2,3-dihydro-1lambda6-thiophen-3-yl)-2-{4′-fluoro-[1,1′-biphenyl]-4-yl}-N-[(pyridin-4-yl)methyl]propanamide], the IC50 fell in the range of 5 to 10 µM.
For the molecule `CS(=O)(=O)N1CCN(C(C(=O)N(Cc2ccncc2)C2C=CS(=O)(=O)C2)c2ccc(-c3ccc(F)cc3)cc2)CC1` (stereo not drawn) [I-548, N-(1,1-dioxo-2,3-dihydro-1lambda6-thiophen-3-yl)-2-{4′-fluoro-[1,1′-biphenyl]-4-yl}-2-(4-methanesulfonylpiperazin-1-yl)-N-[(pyridin-4-yl)methyl]acetamide], the IC50 was above 50 µM.
The result for `O=C(Cc1ncc(-c2ccc(F)c(F)c2)cc1F)N(Cc1ccnc(OC(F)F)c1)C1C=CS(=O)(=O)C1` (stereo not drawn) [I-698, N-{[2-(difluoromethoxy)pyridin-4-yl]methyl}-2-[5-(3,4-difluorophenyl)-3-fluoropyridin-2-yl]-N-(1,1-dioxo-2,3-dihydro-1lambda6-thiophen-3-yl)acetamide] reads 0.5 to 5 µM; that for `O=C([C@@H]1[C@@H]2CC[C@@]1(c1cccc(Br)c1)C2)N(Cc1ccncc1)C1C=CS(=O)(=O)C1` (mixture of isomers) [I-755, rac-(1R,4R,5R)-1-(3-bromophenyl)-N-(1,1-dioxo-2,3-dihydro-1lambda6-thiophen-3-yl)-N-[(pyridin-4-yl)methyl]bicyclo[2.1.1]hexane-5-carboxamide], above 50 µM; that for `CN(Cc1ccncc1)C(=O)c1ccc(CN(C(=O)Cc2ccc(-c3ccc(F)c(F)c3)cc2F)C2C=CS(=O)(=O)C2)cc1` (stereo not drawn) [I-778, 4-{[N-(1,1-dioxo-2,3-dihydro-1lambda6-thiophen-3-yl)-2-{3,3′,4′-trifluoro-[1,1′-biphenyl]-4-yl}acetamido]methyl}-N-methyl-N-[(pyridin-4-yl)methyl]benzamide], 0.5 to 5 µM.
As to `O=C(Cc1ccc(-c2ccc(F)cc2)cc1F)N(Cc1ccnc(OC2CC2)c1)C1C=CS(=O)(=O)C1` (stereo not drawn) [I-110, N-[(2-cyclopropoxypyridin-4-yl)methyl]-2-{3,4′-difluoro-[1,1′-biphenyl]-4-yl}-N-(1,1-dioxo-2,3-dihydro-1lambda6-thiophen-3-yl)acetamide], the IC50 was 0.5 to 5 µM.
Take `CN(C)C(=O)C(C(=O)N(Cc1ccnc(C(C)(C)O)c1)C1C=CS(=O)(=O)C1)c1ccc(-c2ccc(F)cc2)cc1F` (stereo not drawn) [I-21, 2-{3,4′-difluoro-[1,1′-biphenyl]-4-yl}-N-(1,1-dioxo-2,3-dihydro-1lambda6-thiophen-3-yl)-N-{[2-(2-hydroxypropan-2-yl)pyridin-4-yl]methyl}-N′,N′-dimethylpropanediamide]: the IC50 was below 0.5 µM.
The result for `O=C([C@H]1CC[C@@H](Cn2cccn2)O1)N(Cc1ccncc1)C1C=CS(=O)(=O)C1` (mixture of isomers) [I-716, rac-(2R,5S)-N-(1,1-dioxo-2,3-dihydro-1lambda6-thiophen-3-yl)-5-[(1H-pyrazol-1-yl)methyl]-N-[(pyridin-4-yl)methyl]oxolane-2-carboxamide] reads above 50 µM; that for `O=C(Cc1ccc(S(F)(F)(F)(F)F)cc1)N(Cc1nn[nH]n1)C1C=CS(=O)(=O)C1` (stereo not drawn) [I-757, N-(1,1-dioxo-2,3-dihydro-1lambda6-thiophen-3-yl)-2-[4-(pentafluoro-lambda6-sulfanyl)phenyl]-N-[(2H-1,2,3,4-tetrazol-5-yl)methyl]acetamide], above 50 µM; that for `CC(C)(O)c1cc(CN(C(=O)Cc2ccc(-c3cc(F)c(F)c(F)c3)cc2F)C2C=CS(=O)(=O)C2)ccn1` (stereo not drawn) [I-19, N-(1,1-dioxo-2,3-dihydro-1lambda6-thiophen-3-yl)-N-{[2-(2-hydroxypropan-2-yl)pyridin-4-yl]methyl}-2-{3,3′,4′,5′-tetrafluoro-[1,1′-biphenyl]-4-yl}acetamide], below 0.5 µM.
The result for `Cc1cccn1-c1ccc(C(C(=O)N(C)C)C(=O)N(Cc2ccnc(C(C)(C)O)c2)C2C=CS(=O)(=O)C2)c(F)c1` (stereo not drawn) [I-174, N-(1,1-dioxo-2,3-dihydro-1lambda6-thiophen-3-yl)-2-[2-fluoro-4-(2-methyl-1H-pyrrol-1-yl)phenyl]-N-{[2-(2-hydroxypropan-2-yl)pyridin-4-yl]methyl}-N′,N′-dimethylpropanediamide] reads 0.5 to 5 µM; that for `O=C(Cc1ccc(-c2ccc(F)cc2)cc1F)N(Cc1ccncc1)C1C=CS(=O)(=O)C1` (stereo not drawn) [I-115, 2-{3,4′-difluoro-[1,1′-biphenyl]-4-yl}-N-(1,1-dioxo-2,3-dihydro-1lambda6-thiophen-3-yl)-N-[(pyridin-4-yl)methyl]acetamide], 0.5 to 5 µM.
Under `COc1cc(CN(C(=O)C(OCc2cnn(C)c2)c2ccc(-c3ccc(F)c(F)c3)cc2F)[C@@H]2C=CS(=O)(=O)C2)ccn1` (single isomer, unassigned) [I-742, (2R*)-N-[(3R)-1,1-dioxo-2,3-dihydro-1lambda6-thiophen-3-yl]-N-[(2-methoxypyridin-4-yl)methyl]-2-[(1-methyl-1H-pyrazol-4-yl)methoxy]-2-{3,3′,4′-trifluoro-[1,1′-biphenyl]-4-yl}acetamide] stands 0.5 to 5 µM; under `CC(C)(O)c1cc(CN(C(=O)C(OCCC(F)F)c2ccc(-c3ccc(F)c(F)c3)cc2F)[C@@H]2C=CS(=O)(=O)C2)ccn1` (single isomer, unassigned) [I-812], below 0.5 µM.
Take `COc1cc(CN(C(=O)Cc2ccc(S(F)(F)(F)(F)F)cc2)C2C=CS(=O)(=O)C2)cc(OC)n1` (stereo not drawn) [I-684, N-[(2,6-dimethoxypyridin-4-yl)methyl]-N-(1,1-dioxo-2,3-dihydro-1lambda6-thiophen-3-yl)-2-[4-(pentafluoro-lambda6-sulfanyl)phenyl]acetamide]: the IC50 is 0.5 to 5 µM.
The result for `CC(C)(O)c1cc(CN(C(=O)Cc2ncc(-c3ccc(F)c(F)c3)cn2)C2C=CS(=O)(=O)C2)ccn1` (stereo not drawn) [I-116, 2-[5-(3,4-difluorophenyl)pyrimidin-2-yl]-N-(1,1-dioxo-2,3-dihydro-1lambda6-thiophen-3-yl)-N-{[2-(2-hydroxypropan-2-yl)pyridin-4-yl]methyl}acetamide] reads 0.5 to 5 µM; that for `CC(C)(O)c1csc(CN(C(=O)Cn2cc(-c3cc(F)c(F)c(F)c3)cn2)C2C=CS(=O)(=O)C2)n1` (stereo not drawn) [I-797, N-(1,1-dioxo-2,3-dihydro-1lambda6-thiophen-3-yl)-N-{[4-(2-hydroxypropan-2-yl)-1,3-thiazol-2-yl]methyl}-2-[4-(3,4,5-trifluorophenyl)-1H-pyrazol-1-yl]acetamide], below 0.5 µM.
Under `O=C(Cc1ccc(S(F)(F)(F)(F)F)cc1)N(Cc1ccncc1)C1C=CS(=O)(=O)C1` (stereo not drawn) [I-63, N-(1,1-dioxo-2,3-dihydro-1lambda6-thiophen-3-yl)-2-[4-(pentafluoro-lambda6-sulfanyl)phenyl]-N-[(pyridin-4-yl)methyl]acetamide] stands below 0.5 µM.
